Tests used:
Type in all cases: cell-based
[1] = test system: third stage larvae of Haemonchus contortus; assay: Haemonchus contortus L3 (HcL3) Assay; details: 96 h, read-out: HcL3 Minimum Effective Dose (MED)
[2] = test system: microfilariae of Dirofilaria immitis; assay: Dirofilaria immitis, Microfilaria (DiMF) In vitro Assay; details: 72 h, read-out: DiMF Minimum Effective Dose (MED), approximately 72 hours incubation, microfilariae assessed for survival or paralysis
[3] = test system: 4th stage larvae (L4) of Dirofilaria immitis; assay: Dirofilaria immitis, L4 Stage (DiL4) In Vitro Assay; details: Dirofilaria immitis, 72 h, read-out: DiL4 Minimum Effective Dose (MED), approximately 72 hours incubation; L4 larvae assessed for survival or paralysis

Compound	minimal effective concentration [1]	minimal effective concentration [2]	minimal effective concentration [3]
CC(C)C[C@H]1C(=O)O[C@H](Cc2ccc(Cn3nccc3Br)cc2)C(=O)N(C)[C@@H](CC(C)C)C(=O)O[C@H](C)C(=O)N(C)[C@@H](CC(C)C)C(=O)O[C@H](Cc2ccc(Cn3ccc(Br)n3)cc2)C(=O)N(C)[C@@H](CC(C)C)C(=O)O[C@H](C)C(=O)N1C [Example 1a-31, (3S,6R,9S,12R,15S,18R,21S,24R)-6-(4-((3-bromo-1H-pyrazol-1-yl)methyl)benzyl)-18-(4-((5-bromo-1H-pyrazol-1-yl)methyl)benzyl)-3,9,15,21-tetraisobutyl-4,10,12,16,22,24-hexamethyl-1,7,13,19-tetraoxa-4,10,16,22-tetraazacyclotetracosan-2,5,8,11,14,17,20,23-octaone]	1 to 10 µM	0.01 to 0.1 µM	0.0001 to 0.001 µM
CC(C)C[C@H]1C(=O)O[C@H](Cc2ccc(Cn3cc(Cl)cn3)cc2)C(=O)N(C)[C@@H](CC(C)C)C(=O)O[C@H](C)C(=O)N(C)[C@@H](CC(C)C)C(=O)O[C@H](Cc2ccc(Cn3cc(Cl)cn3)cc2)C(=O)N(C)[C@@H](CC(C)C)C(=O)O[C@H](C)C(=O)N1C [Example 1b-35, (3S,6R,9S,12R,15S,18R,21S,24R)-6,18-bis(4-((4-chloro-1H-pyrazol-1-yl)methyl)benzyl)-3,9,15,21-tetraisobutyl-4,10,12,16,22,24-hexamethyl-1,7,13,19-tetraoxa-4,10,16,22-tetraazacyclotetracosan-2,5,8,11,14,17,20,23-octaone]	10 to 100 µM	0.001 to 0.01 µM	0.0001 to 0.001 µM
CC(C)C[C@H]1C(=O)O[C@H](Cc2ccc(Cn3cc(I)cn3)cc2)C(=O)N(C)[C@@H](CC(C)C)C(=O)O[C@H](C)C(=O)N(C)[C@@H](CC(C)C)C(=O)O[C@H](Cc2ccc(Cn3cc(I)cn3)cc2)C(=O)N(C)[C@@H](CC(C)C)C(=O)O[C@H](C)C(=O)N1C [Example 1b-46, (3S,6R,9S,12R,15S,18R,21S,24R)-6,18-bis(4-((4-iodo-1H-pyrazol-1-yl)methyl)benzyl)-3,9,15,21-tetraisobutyl-4,10,12,16,22,24-hexamethyl-1,7,13,19-tetraoxa-4,10,16,22-tetraazacyclotetracosan-2,5,8,11,14,17,20,23-octaone]	1 to 10 µM	0.001 to 0.01 µM	0.0001 to 0.001 µM
CC(C)C[C@H]1C(=O)O[C@H](Cc2ccc(Cn3nc(C(F)F)cc3C(F)F)cc2)C(=O)N(C)[C@@H](CC(C)C)C(=O)O[C@H](C)C(=O)N(C)[C@@H](CC(C)C)C(=O)O[C@H](Cc2ccc(Cn3nc(C(F)F)cc3C(F)F)cc2)C(=O)N(C)[C@@H](CC(C)C)C(=O)O[C@H](C)C(=O)N1C [Example 1b-89, (3S,6R,9S,12R,15S,18R,21S,24R)-6,18-bis(4-((3,5-bis(difluoromethyl)-1H-pyrazol-1-yl)methyl)benzyl)-3,9,15,21-tetraisobutyl-4,10,12,16,22,24-hexamethyl-1,7,13,19-tetraoxa-4,10,16,22-tetraazacyclotetracosan-2,5,8,11,14,17,20,23-octaone]	≤ 1 µM	0.001 to 0.01 µM	≤ 0.0001 µM
CC#Cc1cnn(Cc2ccc(C[C@H]3OC(=O)[C@H](CC(C)C)N(C)C(=O)[C@@H](C)OC(=O)[C@H](CC(C)C)N(C)C(=O)[C@@H](Cc4ccc(Cn5cc(C#CC)cn5)cc4)OC(=O)[C@H](CC(C)C)N(C)C(=O)[C@@H](C)OC(=O)[C@H](CC(C)C)N(C)C3=O)cc2)c1 [Example 1b-118, (3S,6R,9S,12R,15S,18R,21S,24R)-3,9,15,21-tetraisobutyl-4,6,10,16,18,22-hexamethyl-12,24-bis(4-((4-(prop-1-yn-1-yl)-1H-pyrazol-1-yl)methyl)benzyl)-1,7,13,19-tetraoxa-4,10,16,22-tetraazacyclotetracosan-2,5,8,11,14,17,20,23-octaone]	1 to 10 µM	0.001 to 0.01 µM	0.0001 to 0.001 µM
CCC#Cc1cnn(Cc2ccc(C[C@H]3OC(=O)[C@H](CC(C)C)N(C)C(=O)[C@@H](C)OC(=O)[C@H](CC(C)C)N(C)C(=O)[C@@H](Cc4ccc(Cn5cc(C#CCC)cn5)cc4)OC(=O)[C@H](CC(C)C)N(C)C(=O)[C@@H](C)OC(=O)[C@H](CC(C)C)N(C)C3=O)cc2)c1 [Example 1b-119, (3S,6R,9S,12R,15S,18R,21S,24R)-6,18-bis(4-((4-(but-1-yn-1-yl)-1H-pyrazol-1-yl)methyl)benzyl)-3,9,15,21-tetraisobutyl-4,10,12,16,22,24-hexamethyl-1,7,13,19-tetraoxa-4,10,16,22-tetraazacyclotetracosan-2,5,8,11,14,17,20,23-octaone]	10 to 100 µM	0.001 to 0.01 µM	≤ 0.0001 µM
CC(C)C[C@H]1C(=O)O[C@H](Cc2ccc(Cn3nccc3C(C)C)cc2)C(=O)N(C)[C@@H](CC(C)C)C(=O)O[C@H](C)C(=O)N(C)[C@@H](CC(C)C)C(=O)O[C@H](Cc2ccc(Cn3nccc3C(C)C)cc2)C(=O)N(C)[C@@H](CC(C)C)C(=O)O[C@H](C)C(=O)N1C [Example 1b-126, (3S,6R,9S,12R,15S,18R,21S,24R)-3,9,15,21-tetraisobutyl-6,18-bis(4-((5-isopropyl-1H-pyrazol-1-yl)methyl)benzyl)-4,10,12,16,22,24-hexamethyl-1,7,13,19-tetraoxa-4,10,16,22-tetraazacyclotetracosan-2,5,8,11,14,17,20,23-octaone]	1 to 10 µM	0.001 to 0.01 µM	0.0001 to 0.001 µM
CC(C)C[C@H]1C(=O)O[C@H](Cc2ccc(Cn3nccc3C(C)(C)C)cc2)C(=O)N(C)[C@@H](CC(C)C)C(=O)O[C@H](C)C(=O)N(C)[C@@H](CC(C)C)C(=O)O[C@H](Cc2ccc(Cn3nccc3C(C)(C)C)cc2)C(=O)N(C)[C@@H](CC(C)C)C(=O)O[C@H](C)C(=O)N1C [Example 1b-127, (3S,6R,9S,12R,15S,18R,21S,24R)-6,18-bis(4-((5-(tert-butyl)-1H-pyrazol-1-yl)methyl)benzyl)-3,9,15,21-tetraisobutyl-4,10,12,16,22,24-hexamethyl-1,7,13,19-tetraoxa-4,10,16,22-tetraazacyclotetracosan-2,5,8,11,14,17,20,23-octaone]	1 to 10 µM	0.01 to 0.1 µM	0.001 to 0.01 µM
CC(C)C[C@H]1C(=O)O[C@H](Cc2ccc(Cn3nccc3C3CCC3)cc2)C(=O)N(C)[C@@H](CC(C)C)C(=O)O[C@H](C)C(=O)N(C)[C@@H](CC(C)C)C(=O)O[C@H](Cc2ccc(Cn3nccc3C3CCC3)cc2)C(=O)N(C)[C@@H](CC(C)C)C(=O)O[C@H](C)C(=O)N1C [Example 1b-129, (3S,6R,9S,12R,15S,18R,21S,24R)-6,18-bis(4-((5-cyclobutyl-1H-pyrazol-1-yl)methyl)benzyl)-3,9,15,21-tetraisobutyl-4,10,12,16,22,24-hexamethyl-1,7,13,19-tetraoxa-4,10,16,22-tetraazacyclotetracosan-2,5,8,11,14,17,20,23-octaone]	1 to 10 µM	0.01 to 0.1 µM	0.0001 to 0.001 µM
CC(C)C[C@H]1C(=O)O[C@H](Cc2ccc(Cn3ccc(N)n3)cc2)C(=O)N(C)[C@@H](CC(C)C)C(=O)O[C@H](C)C(=O)N(C)[C@@H](CC(C)C)C(=O)O[C@H](Cc2ccc(Cn3ccc(N)n3)cc2)C(=O)N(C)[C@@H](CC(C)C)C(=O)O[C@H](C)C(=O)N1C [Example 1b-143, (3S,6R,9S,12R,15S,18R,21S,24R)-6,18-bis(4-((3-amino-1H-pyrazol-1-yl)methyl)benzyl)-3,9,15,21-tetraisobutyl-4,10,12,16,22,24-hexamethyl-1,7,13,19-tetraoxa-4,10,16,22-tetraazacyclotetracosan-2,5,8,11,14,17,20,23-octaone]	1 to 10 µM	0.001 to 0.01 µM	0.001 to 0.01 µM
CC(C)C[C@H]1C(=O)O[C@H](Cc2ccc(Cn3ccc(OC(C)C)n3)cc2)C(=O)N(C)[C@@H](CC(C)C)C(=O)O[C@H](C)C(=O)N(C)[C@@H](CC(C)C)C(=O)O[C@H](Cc2ccc(Cn3ccc(OC(C)C)n3)cc2)C(=O)N(C)[C@@H](CC(C)C)C(=O)O[C@H](C)C(=O)N1C [Example 1b-151, (3S,6R,9S,12R,15S,18R,21S,24R)-3,9,15,21-tetraisobutyl-6,18-bis(4-((3-isopropoxy-1H-pyrazol-1-yl)methyl)benzyl)-4,10,12,16,22,24-hexamethyl-1,7,13,19-tetraoxa-4,10,16,22-tetraazacyclotetracosan-2,5,8,11,14,17,20,23-octaone]	≤ 1 µM	0.001 to 0.01 µM	0.0001 to 0.001 µM
CCc1ccnn1Cc1ccc(C[C@H]2OC(=O)[C@H](CC(C)C)N(C)C(=O)[C@@H](C)OC(=O)[C@H](CC(C)C)N(C)C(=O)[C@@H](Cc3ccc(Cn4nccc4CC)cc3)OC(=O)[C@H](CC(C)C)N(C)C(=O)[C@@H](C)OC(=O)[C@H](CC(C)C)N(C)C2=O)cc1 [Example 1b-165, (3S,6R,9S,12R,15S,18R,21S,24R)-6,18-bis(4-((5-ethyl-1H-pyrazol-1-yl)methyl)benzyl)-3,9,15,21-tetraisobutyl-4,10,12,16,22,24-hexamethyl-1,7,13,19-tetraoxa-4,10,16,22-tetraazacyclotetracosan-2,5,8,11,14,17,20,23-octaone]	≤ 1 µM	0.001 to 0.01 µM	0.0001 to 0.001 µM
